According to ChEMBL document CHEMBL3526057 (Drug Metab Dispos, 2011):

How the values were obtained:
Format in all cases: ADME
Details in all cases: recombinant enzyme, 1 h
[1] = biological target: T1, Cytochrome P450 2C19 (Homo sapiens, UniProt P33261, M74T); test: Activity of human recombinant CYP2C19 M74T mutant expressed in Saccharomyces cerevisiae BJ5457 assessed as intrinisic clearance foromeprazole 5'-hydroxylation per pmol protein after 60 mins
[2] = biological target: T2, Cytochrome P450 2C19 (Homo sapiens, UniProt P33261); test: Activity of human recombinant CYP2C19.1A mutant expressed in Saccharomyces cerevisiae BJ5457 assessed as omeprazole 5'-hydroxylation per pmol protein at 5 uM after 60 mins
[3] = biological target: T3, Cytochrome P450 2C19 (Homo sapiens, UniProt P33261, P227L); test: Activity of human recombinant CYP2C19.10 mutant expressed in Saccharomyces cerevisiae BJ5457 assessed asomeprazole 5'-hydroxylation per pmol protein after 60 mins
[4] = biological target: T4, Cytochrome P450 2C19 (Homo sapiens, UniProt P33261, R144H); test: Activity of human recombinant CYP2C19.9 mutant expressed in Saccharomyces cerevisiae BJ5457 assessed asomeprazole 5'-hydroxylation per pmol protein after 60 mins
[5] = biological target: T5, Cytochrome P450 2C19 (Homo sapiens, UniProt P33261, S51G); test: Activity of human recombinant CYP2C19.19 mutant expressed in Saccharomyces cerevisiae BJ5457 assessed asomeprazole 5'-hydroxylation per pmol protein after 60 mins
[6] = biological target: Cytochrome P450 2C19 (Homo sapiens, UniProt P33261, I19L); test: Activity of human recombinant CYP2C19.15 mutant expressed in Saccharomyces cerevisiae BJ5457 assessed as omeprazole 5'-hydroxylation per pmol protein at 5 uM after 60 mins
[7] = biological target: T3, Cytochrome P450 2C19; test: Activity of human recombinant CYP2C19.10 mutant expressed in Saccharomyces cerevisiae BJ5457 assessed as intrinisic clearance foromeprazole 5'-hydroxylation per pmol protein after 60 mins
[8] = biological target: T4, Cytochrome P450 2C19; test: Activity of human recombinant CYP2C19.9 mutant expressed in Saccharomyces cerevisiae BJ5457 assessed as intrinisic clearance foromeprazole 5'-hydroxylation per pmol protein after 60 mins
[9] = biological target: T6, Cytochrome P450 2C19 (Homo sapiens, UniProt P33261, L17P); test: Activity of human recombinant CYP2C19.14 mutant expressed in Saccharomyces cerevisiae BJ5457 assessed asomeprazole 5'-hydroxylation per pmol protein after 60 mins
[10] = biological target: T7, Cytochrome P450 2C19 (Homo sapiens, UniProt P33261, R410C); test: Activity of human recombinant CYP2C19.13 mutant expressed in Saccharomyces cerevisiae BJ5457 assessed as omeprazole 5'-hydroxylation per pmol protein at 100 uM after 60 mins
[11] = biological target: T8, Cytochrome P450 2C19 (Homo sapiens, UniProt P33261, R433W); test: Activity of human recombinant CYP2C19.5B mutant expressed in Saccharomyces cerevisiae BJ5457 assessed as omeprazole 5'-hydroxylation per pmol protein at 100 uM after 60 mins
[12] = biological target: T2, Cytochrome P450 2C19; test: Activity of human recombinant CYP2C19.1B mutant expressed in Saccharomyces cerevisiae BJ5457 assessed asomeprazole 5'-hydroxylation per pmol protein after 60 mins
[13] = biological target: T1, Cytochrome P450 2C19; test: Activity of human recombinant CYP2C19 M74T mutant expressed in Saccharomyces cerevisiae BJ5457 assessed as omeprazole 5'-hydroxylation per pmol protein at 5 uM after 60 mins
[14] = biological target: T4, Cytochrome P450 2C19; test: Activity of human recombinant CYP2C19.9 mutant expressed in Saccharomyces cerevisiae BJ5457 assessed as omeprazole 5'-hydroxylation per pmol protein at 5 uM after 60 mins
[15] = biological target: T9, Cytochrome P450 2C19 (Homo sapiens, UniProt P33261, A161P); test: Activity of human recombinant CYP2C19 A161P mutant expressed in Saccharomyces cerevisiae BJ5457 assessed as omeprazole 5'-hydroxylation per pmol protein at 100 uM after 60 mins
[16] = biological target: T10, Cytochrome P450 2C19 (Homo sapiens, UniProt P33261, W212C); test: Activity of human recombinant CYP2C19 W212C mutant expressed in Saccharomyces cerevisiae BJ5457 assessed asomeprazole 5'-hydroxylation after 60 mins
[17] = biological target: T5, Cytochrome P450 2C19; test: Activity of human recombinant CYP2C19.19 mutant expressed in Saccharomyces cerevisiae BJ5457 assessed as omeprazole 5'-hydroxylation per pmol protein at 5 uM after 60 mins
[18] = biological target: T6, Cytochrome P450 2C19; test: Activity of human recombinant CYP2C19.14 mutant expressed in Saccharomyces cerevisiae BJ5457 assessed as omeprazole 5'-hydroxylation per pmol protein at 5 uM after 60 mins
[19] = biological target: T11, Cytochrome P450 2C19 (Homo sapiens, UniProt P33261, V331I/R442C); test: Activity of human recombinant CYP2C19.16 mutant expressed in Saccharomyces cerevisiae BJ5457 assessed asomeprazole 5'-hydroxylation after 60 mins
[20] = biological target: T4, Cytochrome P450 2C19; test: Activity of human recombinant CYP2C19.9 mutant expressed in Saccharomyces cerevisiae BJ5457 assessed asomeprazole 5'-hydroxylation after 60 mins
[21] = biological target: T11, Cytochrome P450 2C19; test: Activity of human recombinant CYP2C19.16 mutant expressed in Saccharomyces cerevisiae BJ5457 assessed as intrinisic clearance foromeprazole 5'-hydroxylation per pmol protein after 60 mins
[22] = biological target: T12, Cytochrome P450 2C19 (Homo sapiens, UniProt P33261, F168L); test: Activity of human recombinant CYP2C19 F168L mutant expressed in Saccharomyces cerevisiae BJ5457 assessed as omeprazole 5'-hydroxylation per pmol protein at 100 uM after 60 mins
[23] = biological target: Cytochrome P450 2C19 (Homo sapiens, UniProt P33261, R150H); test: Activity of human recombinant CYP2C19.11 mutant expressed in Saccharomyces cerevisiae BJ5457 assessed asomeprazole 5'-hydroxylation per pmol protein after 60 mins
[24] = biological target: T10, Cytochrome P450 2C19; test: Activity of human recombinant CYP2C19 W212C mutant expressed in Saccharomyces cerevisiae BJ5457 assessed as intrinisic clearance foromeprazole 5'-hydroxylation per pmol protein after 60 mins
[25] = biological target: T8, Cytochrome P450 2C19; test: Activity of human recombinant CYP2C19.5B mutant expressed in Saccharomyces cerevisiae BJ5457 assessed as omeprazole 5'-hydroxylation per pmol protein at 5 uM after 60 mins
[26] = biological target: Cytochrome P450 2C19 (Homo sapiens, UniProt P33261, E122A); test: Activity of human recombinant CYP2C19 E122A mutant expressed in Saccharomyces cerevisiae BJ5457 assessed as omeprazole 5'-hydroxylation per pmol protein at 100 uM after 60 mins
[27] = biological target: T1, Cytochrome P450 2C19; test: Activity of human recombinant CYP2C19 M74T mutant expressed in Saccharomyces cerevisiae BJ5457 assessed as omeprazole 5'-hydroxylation per pmol protein at 100 uM after 60 mins
[28] = biological target: T7, Cytochrome P450 2C19; test: Activity of human recombinant CYP2C19.13 mutant expressed in Saccharomyces cerevisiae BJ5457 assessed as omeprazole 5'-hydroxylation per pmol protein at 5 uM after 60 mins
[29] = biological target: T9, Cytochrome P450 2C19; test: Activity of human recombinant CYP2C19 A161P mutant expressed in Saccharomyces cerevisiae BJ5457 assessed asomeprazole 5'-hydroxylation after 60 mins
[30] = biological target: T12, Cytochrome P450 2C19; test: Activity of human recombinant CYP2C19 F168L mutant expressed in Saccharomyces cerevisiae BJ5457 assessed as intrinisic clearance foromeprazole 5'-hydroxylation per pmol protein after 60 mins
[31] = biological target: T1, Cytochrome P450 2C19; test: Activity of human recombinant CYP2C19 M74T mutant expressed in Saccharomyces cerevisiae BJ5457 assessed asomeprazole 5'-hydroxylation per pmol protein after 60 mins

CL [1]: 1.11 µL/min
Drug metabolism [2]: 2.75 pmol/min
Vmax [3]: 5.35 pmol/min
Vmax [4]: 6.21 pmol/min
Vmax [5]: 9.59 pmol/min
Drug metabolism [6]: 3.41 pmol/min
CL [7]: 0.5 µL/min
CL [8]: 0.62 µL/min
Vmax [9]: 8.05 pmol/min
Drug metabolism [10]: 8.55 pmol/min
Drug metabolism [11]: metabolite_not_detected
Vmax [12]: 5.12 pmol/min
Drug metabolism [13]: 2.24 pmol/min
Drug metabolism [14]: 1.95 pmol/min
Drug metabolism [15]: 1.39 pmol/min
Km [16]: 11.2 µM
Drug metabolism [17]: 2.82 pmol/min
Drug metabolism [18]: 2.85 pmol/min
Km [19]: 4.17 µM
Km [20]: 10.1 µM
CL [21]: 0.41 µL/min
Drug metabolism [22]: 5.48 pmol/min
Vmax [23]: 8.34 pmol/min
CL [24]: 0.18 µL/min
Drug metabolism [25]: metabolite_not_detected
Drug metabolism [26]: 4.71 pmol/min
Drug metabolism [27]: 4.27 pmol/min
Drug metabolism [28]: 3.03 pmol/min
Km [29]: 6.68 µM
CL [30]: 0.94 µL/min
Vmax [31]: 4.03 pmol/min
SMILES: COc1ccc2[nH]c([S+]([O-])Cc3ncc(C)c(OC)c3C)nc2c1 (stereo unspecified) [OMEPRAZOLE]
